In ChEMBL document CHEMBL1144029, “Characterization of type II ligands in CYP2C9 and CYP3A4” (J Med Chem, 2008):

Assays:
[1] = target: T1, Cytochrome P450 3A4 (Homo sapiens, UniProt P08684); test: Inhibition of human recombinant CYP3A4 expressed in Saccharomyces cerevisiae by fluorescence assay; type: ADME
[2] = target: T2, Cytochrome P450 2C9 (Homo sapiens, UniProt P11712); test: Inhibition of human recombinant CYP2C9 expressed in Saccharomyces cerevisiae by fluorescence assay; type: ADME
[3] = target: T2, Cytochrome P450 2C9; test: Binding affinity to purified human recombinant CYP2C9 expressed in Escherichia coli assessed as spectral dissociation constant; type: ADME
[4] = target: T1, Cytochrome P450 3A4; test: Binding affinity to purified human recombinant CYP3A4 expressed in Escherichia coli assessed as spectral dissociation constant; type: ADME
[5] = organism: Homo sapiens; test: Selectivity for human recombinant CYP2C9 over human recombinant CYP3A4

T2 sequence (P11712 whole entry): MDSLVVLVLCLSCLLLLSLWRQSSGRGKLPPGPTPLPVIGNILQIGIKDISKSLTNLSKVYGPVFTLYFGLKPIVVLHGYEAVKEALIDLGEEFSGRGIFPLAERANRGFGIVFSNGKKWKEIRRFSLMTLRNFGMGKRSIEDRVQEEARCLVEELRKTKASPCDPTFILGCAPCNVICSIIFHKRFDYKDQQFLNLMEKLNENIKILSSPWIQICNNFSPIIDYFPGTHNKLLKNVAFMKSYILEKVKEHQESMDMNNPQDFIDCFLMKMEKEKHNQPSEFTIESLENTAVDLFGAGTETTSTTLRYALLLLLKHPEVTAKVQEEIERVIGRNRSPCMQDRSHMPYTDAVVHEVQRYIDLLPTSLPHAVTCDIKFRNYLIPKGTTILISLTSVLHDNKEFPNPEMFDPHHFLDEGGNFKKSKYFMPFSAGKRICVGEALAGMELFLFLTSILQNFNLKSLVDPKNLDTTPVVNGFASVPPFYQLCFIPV
T1 sequence (P08684 whole entry): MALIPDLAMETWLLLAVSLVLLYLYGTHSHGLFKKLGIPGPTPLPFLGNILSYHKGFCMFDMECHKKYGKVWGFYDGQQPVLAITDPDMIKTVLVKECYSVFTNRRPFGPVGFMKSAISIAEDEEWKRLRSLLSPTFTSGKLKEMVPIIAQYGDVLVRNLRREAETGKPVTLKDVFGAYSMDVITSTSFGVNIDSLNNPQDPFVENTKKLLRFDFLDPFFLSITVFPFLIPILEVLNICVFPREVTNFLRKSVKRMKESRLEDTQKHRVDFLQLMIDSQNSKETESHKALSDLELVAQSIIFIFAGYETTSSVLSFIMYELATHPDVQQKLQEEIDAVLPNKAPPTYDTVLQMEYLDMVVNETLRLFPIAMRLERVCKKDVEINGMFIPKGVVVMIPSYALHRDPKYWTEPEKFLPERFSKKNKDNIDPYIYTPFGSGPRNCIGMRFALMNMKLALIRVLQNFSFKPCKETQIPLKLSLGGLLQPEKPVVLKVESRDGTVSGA

SMILES	IC50 [1] [µM]	IC50 [2] [µM]	Kd [3] [µM]	Kd [4] [µM]	Selectivity ratio [5]
Brc1ccc(-n2c(SCc3ccccc3)nnc2-c2ccncc2)cc1	1.3	4.3	–	–	–
CS(=O)(=O)Cc1cc(N2CCCC2)nc(-c2ccncc2)n1	1.3	> 50	–	–	–
CCn1c(SCc2ccc(OC)cc2)nnc1-c1ccncc1	28	> 50	–	–	–
Cc1cc(C(C)(C)NC(=O)C(Br)C(C)(C)C)cc(C)n1 (centres undefined)	13	> 50	–	–	–
CCOC(=O)C(Cc1ccc(Cl)cc1Cl)c1ccno1 (centres undefined)	12	11	–	–	–
Clc1ccc(C2(Cn3cncn3)CC(Br)CO2)c(Cl)c1 (centres undefined) [BROMUCONAZOLE]	0.13	8.1	–	–	–
CCOc1ccc(NC(=O)c2ccc(-n3cnnn3)cc2)cc1	34	> 30	–	–	–
Clc1ccc(Cn2cc(-c3ccncc3)cn2)c(Cl)c1	0.23	0.5	3.6	0.38	–
CS(=O)(=O)c1ccc(Cn2cc(-c3ccncc3)cn2)cc1	26	1.3	–	–	20
O[C@](Cn1cccn1)(c1ccc(F)cc1F)n1cncn1	44	> 50	–	–	–
CS(=O)(=O)Cc1cc(N2CCCC2)nc(-c2ccccc2)n1	> 40	> 50	–	–	–
COc1ccc(-c2cc(CNS(=O)(=O)c3ccccc3)on2)cc1	33	39	–	–	–
Cc1cnc(CNc2cc(-c3ccccc3)nc(-c3ccccn3)n2)nc1	> 40	> 50	–	–	–
CS(=O)(=O)OCC1COC(Cn2cncn2)(c2ccc(Cl)cc2Cl)O1 (centres undefined)	7.7	> 50	–	3.5	–
CCC1COC(Cn2cncn2)(c2ccc(Cl)cc2Cl)O1 (centres undefined) [ETACONAZOLE]	0.21	> 50	–	0.21	–
Clc1ccc(OC(Cn2ccnc2)c2ccc(Cl)cc2Cl)c(Cl)c1 (centres undefined)	0.06	10	–	–	–
O=C(Nc1ccccc1)OCc1cn(-c2ccc(Cl)cc2)nn1	> 20	–	–	–	–
Cc1cnc(CNc2cc(-c3ccccc3)nc(-c3ccncc3)n2)nc1	0.071	4.8	–	–	–
Cc1cnc(CNc2cc(-c3ccccc3)nc(-c3cccnc3)n2)nc1	9.6	21	–	–	–
COC(=O)[C@H](Cc1cnc[nH]1)NCc1ccccc1	1.5	20	–	–	–
